Source: patent publication US20050245563A1 (Millennium Pharmaceuticals, Inc., priority 2003, published 2005)
Counter-ions that a name gives are not always drawn.

Target: T1, human Chk1 (GST-Chk1) (Homo sapiens, UniProt O14757)
T1 construct: made in house; host or cells: insect cells (baculovirus, Bac-to-Bac)
T1 sequence (O14757 1-476): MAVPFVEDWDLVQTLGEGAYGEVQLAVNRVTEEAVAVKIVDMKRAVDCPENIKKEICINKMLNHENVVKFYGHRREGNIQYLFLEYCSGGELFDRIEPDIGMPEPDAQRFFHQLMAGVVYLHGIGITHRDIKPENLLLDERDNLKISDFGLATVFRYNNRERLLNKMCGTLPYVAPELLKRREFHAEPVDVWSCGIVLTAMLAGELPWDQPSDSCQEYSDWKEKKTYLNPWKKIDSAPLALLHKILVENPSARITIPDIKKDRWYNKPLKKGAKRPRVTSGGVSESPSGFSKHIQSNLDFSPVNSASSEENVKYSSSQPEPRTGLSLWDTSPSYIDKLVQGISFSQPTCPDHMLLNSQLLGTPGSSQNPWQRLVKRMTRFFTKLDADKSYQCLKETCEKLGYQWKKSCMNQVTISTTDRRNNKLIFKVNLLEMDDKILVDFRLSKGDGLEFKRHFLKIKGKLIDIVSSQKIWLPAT
Experiment: Chk1 FlashPlate kinase assay
Type: biochemical
Details: 8.7 nM GST-Chk1, 1 uM ATP, 33P incorporation into peptide substrate
Procedure: Recombinant human Chk1 was expressed as a fusion protein with glutathione S-transferase at the amino-terminus (GST-Chk1) using standard baculovirus vectors and (Bac-to-Bac®) insect cell expression system purchased from GIBCO™ Invitrogen. Recombinant protein expressed in insect cells was purified using glutathione sepharose (Amersham Biotech) using standard procedures described by the manufacturer.
Chk1 FlashPlate® Kinase Assay:
Assays (25 μL) contained 8.7 nM GST-Chk1, 10 mM MES, 0.1 mM ethylene glycol-bis(β-aminoethylether)-N,N,N′,N′-tetracetic acid (EGTA, pH 8.0), 2 mM DTT, 0.05% Tween 20, 3 uM peptide substrate (Biotin-ILSRRPSYRKILND-free acid) (SEQ ID NO: 1), 1 uM ATP, 0.4 uCi ^33P-γ-ATP (NEN), 4% DMSO. Reactions were incubated for 30 minutes at room temperature, terminated with 50 μL of 50 mM EDTA and 90 μL were transferred to streptavidin-coated FlashPlates® (NEN) and incubated for 1 hour at room temperature. Plates were washed with phosphate buffered salaine containing 0.01% Tween-20 and 10 mM sodium pyrophosphate. Plates were dried, sealed with Topseal™ (NEN) and amount of ^33P incorporated into the peptide substate measure using a Packard Topcount® NXT™ scintillation counter with standard settings.

SMILES | IC50
Cc1ccc2c(c1)c1n[nH]c(C)c1c(=O)n2CCCN [Example 45, 5-(3-Amino-propyl)-3,8-dimethyl-2,5-dihydro-pyrazolo[4,3-c]quinolin-4-one] | < 1000 nM
COc1ccc2c(c1)c1n[nH]c(C)c1c(=O)n2CCCN [Example 58] | < 1000 nM
Cc1[nH]nc2c1c(=O)n(CCCNC(=O)C1CCCCC1)c1ccccc21 [Example 65, Cyclohexanecarboxylic acid [3-(3-methyl-4-oxo-2,4-dihydro-pyrazolo[4,3-c]quinolin-5-yl)-propyl]-amide] | < 1000 nM
Cc1[nH]nc2c1c(=O)n(CCCNC(=O)C(N)Cc1ccc(O)cc1)c1ccccc21 (centres unmarked) [Example 108, 2-Amino-3-(4-hydroxy-phenyl)-N-[3-(3-methyl-4-oxo-2,4-dihydro-pyrazolo[4,3-c]quinolin-5-yl)-propyl]-propionamide] | < 1000 nM
Cc1n[nH]c2c1c(=O)n(CC(N)Cc1ccccc1)c1ccccc21 (centres unmarked) [Example 23, 5-(2-Amino-3-phenyl-propyl)-3-methyl-1,5-dihydro-pyrazolo[4,3-c]quinolin-4-one] | > 20000 nM
Cc1n[nH]c2c1c(=O)n(CCCNC(=O)Nc1ccccc1)c1ccccc21 [Example 66, 1-[3-(3-Methyl-4-oxo-1,4-dihydro-pyrazolo[4,3-c]quinolin-5-yl)-propyl]-3-phenyl-urea] | < 1000 nM
Cc1[nH]nc2c1c(=O)n(CCNS(=O)(=O)c1ccccc1)c1ccccc21 [Example 110, N-[2-(3-Methyl-4-oxo-2,4-dihydro-pyrazolo[4,3-c]quinolin-5-yl)-ethyl]-benzene sulfonamide] | 1000 to 20000 nM
Cc1n[nH]c2c1c(=O)n(CC1CCCNC1)c1ccc(Br)cc21 (centres unmarked) [Example 48, 8-Bromo-3-methyl-5-piperidin-3-ylmethyl-1,5-dihydro-pyrazolo [4,3-c]quinolin-4-one] | < 1000 nM
Cc1n[nH]c2c1c(=O)n(CCN(C)C)c1ccccc21 [Example 7, 5-(2-Dimethylamino-ethyl)-3-methyl-1,5-dihydro-pyrazolo[4,3-c]quinolin-4-one hydrochloride] | 1000 to 20000 nM
Cc1n[nH]c2c1c(=O)n(CC(C)CN)c1ccc(Br)cc21 (centres unmarked) [Example 42, 5-(3-Amino-2-methyl-propyl)-8-bromo-3-methyl-1,5-dihydro-pyrazolo[4,3-c]quinolin-4-one] | < 1000 nM
Cc1n[nH]c2c1c(=O)n(CCCNC(=O)OCc1ccccc1)c1ccc(Br)cc21 [Example 43, [3-(8-Bromo-3-methyl-4-oxo-1,4-dihydro-pyrazolo[4,3-c]quinolin-5-yl)-propyl]-carbamic acid benzyl ester] | < 1000 nM
Cc1n[nH]c2c1c(=O)n(CCCC(=O)N1CCN(C(=O)OC(C)(C)C)CC1)c1ccc(Br)cc21 [Example 21, 4-[4-(8-Bromo-3-methyl-4-oxo-1,4-dihydro-pyrazolo[4,3-c]quinolin-5-yl)-butyryl]-piperazine-1-carboxylic acid tert-butyl ester] | < 1000 nM
Cc1n[nH]c2c1c(=O)n(CCCCNC(=O)c1ccccc1)c1ccc(Br)cc21 [Example 36, N-[4-(8-Bromo-3-methyl-4-oxo-1,4-dihydro-pyrazolo[4,3-c]quinolin-5-yl)-butyl]-benzamide] | < 1000 nM

The next lines start with the values.

IC50 | SMILES
1000 to 20000 nM | Cc1n[nH]c2c1c(=O)n(CC1CCCN(C(=O)OC(C)(C)C)C1)c1ccc(Br)cc21 (centres unmarked) [Example 30, 3-(8-Bromo-3-methyl-4-oxo-1,4-dihydro-pyrazolo[4,3-c]quinolin-5-ylmethyl)-piperidine-1-carboxylic acid tert-butyl ester]
1000 to 20000 nM | Cc1n[nH]c2c1c(=O)n(CCNC(=O)C(Cc1ccccc1)NC(=O)OC(C)(C)C)c1ccccc21 (centres unmarked) [Example 97, {1-[2-(3-Methyl-4-oxo-1,4-dihydro-pyrazolo[4,3-c]quinolin-5-yl)-ethylcarbamoyl]-2-phenyl-ethyl}-carbamic acid tert-butyl ester]
< 1000 nM | Cc1n[nH]c2c1c(=O)n(CCCNC(=O)OC(C)(C)C)c1ccc(Cl)cc21 [Example 31, [3-(8-Chloro-3-methyl-4-oxo-1,4-dihydro-pyrazolo[4,3-c]quinolin-5-yl)-propyl]-carbamic acid tert-butyl ester]
< 1000 nM | Cc1[nH]nc2c1c(=O)n(CCCN(C)C)c1ccc(Cl)cc21 [Example 16, 8-Chloro-5-(3-dimethylamino-propyl)-3-methyl-2,5-dihydro-pyrazolo[4,3-c]quinolin-4-one]
< 1000 nM | Cc1[nH]nc2c1c(=O)n(CCCNC(=O)c1ccc(OC(F)(F)F)cc1)c1ccccc21 [Example 125, N-[3-(3-Methyl-4-oxo-2,4-dihydro-pyrazolo[4,3-c]quinolin-5-yl)-propyl]-4-trifluoromethoxy-benzamide]
1000 to 20000 nM | Cc1[nH]nc2c1c(=O)n(CCCNC(=O)CCCNC(=O)OC(C)(C)C)c1ccccc21 [Example 100, {3-[3-(3-Methyl-4-oxo-2,4-dihydro-pyrazolo[4,3-c]quinolin-5-yl)-propylcarbamoyl]-propyl}-carbamic acid tert-butyl ester]
1000 to 20000 nM | Cc1[nH]nc2c1c(=O)n(CCNC(=O)CCc1ccccc1)c1ccccc21 [Example 92, N-[2-(3-Methyl-4-oxo-2,4-dihydro-pyrazolo[4,3-c]quinolin-5-yl)-ethyl]-3-phenyl-propionamide]
< 1000 nM | Cc1[nH]nc2c1c(=O)n(CCCNC(=O)OCc1ccccc1Cl)c1ccccc21 [Example 80, [3-(3-Methyl-4-oxo-2,4-dihydro-pyrazolo[4,3-c]quinolin-5-yl)-propyl]-carbamic acid 2-chloro-benzyl ester]
< 1000 nM | Cc1[nH]nc2c1c(=O)n(CCCNS(=O)(=O)c1ccccc1)c1ccccc21 [Example 83, N-[3-(3-Methyl-4-oxo-2,4-dihydro-pyrazolo[4,3-c]quinolin-5-yl)-propyl]-benzenesulfonamide]
1000 to 20000 nM | Cc1n[nH]c2c1c(=O)n(CCN1CCOCC1)c1ccccc21 [Example 8, 3-Methyl-5-(2-morpholin-4-yl-ethyl)-1,5-dihydro-pyrazolo[4,3-c]quinolin-4-one]
< 1000 nM | Cc1[nH]nc2c1c(=O)n(CCCN)c1cc(Cl)ccc21 [Example 70, 5-(3-Amino-propyl)-7-chloro-3-methyl-2,5-dihydro-pyrazolo[4,3-c]quinolin-4-one]
< 1000 nM | Cc1n[nH]c2c1c(=O)n(CCN)c1ccc(Br)cc21 [Example 53, 5-(2-Amino-ethyl)-8-bromo-3-methyl-1,5-dihydro-pyrazolo[4,3-c]quinolin4-one]
< 1000 nM | Cc1[nH]nc2c1c(=O)n(CCCNC(=O)c1ccc(C(F)(F)F)cc1)c1ccccc21 [Example 72, N-[3-(3-Methyl-4-oxo-2,4-dihydro-pyrazolo[4,3-c]quinolin-5-yl)-propyl]-4-trifluoromethyl-benzamide]
< 1000 nM | CCCCNc1ccc2c(c1)c1n[nH]c(C)c1c(=O)n2CCCN [Example 116]
< 1000 nM | Cc1n[nH]c2c1c(=O)n(CCNC(=O)OC(C)(C)C)c1ccc(Br)cc21 [Example 52, [2-(8-Bromo-3-methyl-4-oxo-1,4-dihydro-pyrazolo[4,3-c]quinolin-5-yl)-ethyl]-carbamic acid tert-butyl ester]
< 1000 nM | Cc1n[nH]c2c1c(=O)n(CCCC(=O)NCc1ccc(Cl)cc1)c1ccc(Br)cc21 [Example 22, 4-(8-Bromo-3-methyl-4-oxo-1,4-dihydro-pyrazolo[4,3-c]quinolin-5-yl)-N-(4-chloro-benzyl)-butyramide]
